Experimental data: patent publication US10639304B2, “Kinase inhibitors” (priority 2013, dated 2020)
pIC50: −log10 of the molar value.

Columns and labels:
LCK = molecular target: T1, LCK (Homo sapiens, UniProt P06239); experiment: LCK phosphorylation in K562 cells, Western blotting; type: cell-based; conditions: FIG. 11
T1 construct: K562 cells were plated in 10 cm dishes; endogenous in cells; host or cells: K562

Lyn = molecular target: T2, Lyn (Homo sapiens, UniProt P07948); experiment: Lyn phosphorylation in K562 cells, Western blotting; type: cell-based; conditions: FIG. 11
T2 construct: K562 cells were plated in 10 cm dishes; endogenous in cells; host or cells: K562

STAT5 = STAT5 phosphorylation in K562 cells, Western blotting; type: cell-based; conditions: FIG. 7
Src = molecular target: T3, Src (Homo sapiens, UniProt P12931); experiment: Src phosphorylation in K562 cells, Western blotting; type: cell-based; conditions: FIGS. 9 and 10
T3 construct: reduced the levels of phosphorylated Src in K562 cells; endogenous in cells; host or cells: K562

[1] = test system: PARP cleavage in Gleevec-resistant CML cell lines; experiment: PARP cleavage (apoptosis marker), Western blotting; type: cell-based; conditions: FIG. 4
[2] = test system: Gleevec resistant K562 cells; experiment: Cytotoxicity in Gleevec resistant K562 cells (Cell Titer-Blue); type: cell-based; conditions: for pIC50: Homo sapiens, K562
Procedure: Hela (established from epithelioid cervical carcinoma), were purchased from the American Type Culture Collection (ATCC, Manassas, Va.). SN12C and ACHN cells were provided by Dr. Charles Sawyers. […] Normal lymphocyte 9093 was purchased from ATCC. K562 and normal lymphocytes were maintained in RPMI media (Life Technologies) supplemented with 20% fetal bovine serum (FBS). […] All cells were maintained at 37° C. under a humidified atmosphere of 95% air and 5% CO2.
(§1) The cells were seeded at an initial density of 50,000 cells per well in 100 μl of cell culture media constituted with or without drugs at increasing doses ranging from 1 to 10^7 fold. The assays were performed in 96-well cell culture plates which were maintained at 37° C. in 5% CO2 atmosphere for 24 h, 48 h, 72 h and 96 h. At the end of each incubation point; cell viability was measured by Cell Titer-Blue® Assay. The measurements were then expressed as the percentage of viable cells compared to the survival of respective control groups (untreated cells) defined as the maximum cell viability. The data obtained was further analyzed using Prism nonlinear regression software (Graphpad Software) for the curve-fitting and determination of IC50 values.

[3] = test system: leukemic cells derived from ALL, AML, CML and CLL; experiment: Initial analysis of cytotoxicity in leukemic cells; type: cell-based; conditions: for toxicity to the leukemic cells tested: initial analysis of 12 compounds ALD-1 through ALD-12; for anti-leukemic activity: structure-activity summary
Procedure: as §1

Crkl = Crkl phosphorylation in K562 cells, Western blotting; type: cell-based; conditions: FIG. 8
[4] = test system: BV173-GFP, a Gleevec resistant chronic myeloid leukemic cells; experiment: Preclinical efficacy, BV173-GFP leukemia in NSG-B2m mice; type: in vivo; conditions: up to 250 mg/kg intraperitoneal for 5 weeks
Procedure: Two days after leukemia cell injection, the mice received intraperitoneal treatments of DMSO, or ALD-10 in DMSO. Following injection cells, the mice were randomized into two groups (6/group) to receive DMSO, or ALD-10. The mice received up to 250 mg/kg of ALD10 for 5 weeks. […] The median survival for ALD-10 and DMSO treated mice was 42 and 39 days, respectively.

Yes = molecular target: T4, Yes (Homo sapiens, UniProt P07947); experiment: Yes phosphorylation in K562 cells, Western blotting; type: cell-based; conditions: FIG. 11
T4 construct: K562 cells were plated in 10 cm dishes; endogenous in cells; host or cells: K562

T315I mutant Bcr-Abl = molecular target: T5, T315I mutant Bcr-Abl (Homo sapiens, UniProt P00519, T315I); experiment: Bcr-Abl phosphorylation in K562 cells, Western blotting; type: cell-based; conditions: in the presence of Gleevec, FIGS. 5 and 6
T5 construct: K562 cells that express the T315I mutant Bcr-Abl; BCR (fusion partner, P11274 N-terminal part); endogenous in cells; host or cells: K562 (Gleevec-resistant); the other entry of the earlier key: BCR (P11274, Breakpoint cluster region protein)

Bcr-Abl = conditions: in vitro, more potent than imatinib; cited from earlier work

T2 sequence (P07948 whole entry): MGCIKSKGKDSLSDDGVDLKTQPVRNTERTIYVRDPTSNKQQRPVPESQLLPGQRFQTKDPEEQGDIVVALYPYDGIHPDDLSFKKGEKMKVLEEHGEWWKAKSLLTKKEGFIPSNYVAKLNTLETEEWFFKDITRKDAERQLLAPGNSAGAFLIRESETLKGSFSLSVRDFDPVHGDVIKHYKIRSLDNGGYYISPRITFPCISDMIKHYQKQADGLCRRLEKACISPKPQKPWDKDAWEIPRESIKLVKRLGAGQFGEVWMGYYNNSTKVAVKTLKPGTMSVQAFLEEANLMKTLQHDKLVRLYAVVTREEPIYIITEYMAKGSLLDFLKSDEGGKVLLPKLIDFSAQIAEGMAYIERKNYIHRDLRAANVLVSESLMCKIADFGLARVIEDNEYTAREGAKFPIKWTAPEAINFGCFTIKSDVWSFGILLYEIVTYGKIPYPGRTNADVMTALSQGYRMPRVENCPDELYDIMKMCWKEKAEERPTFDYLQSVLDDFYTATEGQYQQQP
T3 sequence (P12931 whole entry): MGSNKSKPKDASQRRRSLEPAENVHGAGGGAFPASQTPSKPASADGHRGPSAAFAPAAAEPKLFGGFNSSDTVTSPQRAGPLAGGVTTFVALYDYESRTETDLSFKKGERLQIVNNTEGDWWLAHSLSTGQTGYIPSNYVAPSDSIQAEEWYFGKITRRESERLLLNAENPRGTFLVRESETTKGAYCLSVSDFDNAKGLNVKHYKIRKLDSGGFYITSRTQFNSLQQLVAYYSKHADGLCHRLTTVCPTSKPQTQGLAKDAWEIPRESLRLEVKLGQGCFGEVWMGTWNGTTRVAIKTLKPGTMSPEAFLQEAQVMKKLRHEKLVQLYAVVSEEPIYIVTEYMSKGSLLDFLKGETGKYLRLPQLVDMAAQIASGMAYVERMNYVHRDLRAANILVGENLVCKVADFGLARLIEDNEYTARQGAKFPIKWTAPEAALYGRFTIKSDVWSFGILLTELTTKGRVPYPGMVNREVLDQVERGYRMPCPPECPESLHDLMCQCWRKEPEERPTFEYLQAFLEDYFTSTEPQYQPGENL
T1 sequence (P06239 whole entry): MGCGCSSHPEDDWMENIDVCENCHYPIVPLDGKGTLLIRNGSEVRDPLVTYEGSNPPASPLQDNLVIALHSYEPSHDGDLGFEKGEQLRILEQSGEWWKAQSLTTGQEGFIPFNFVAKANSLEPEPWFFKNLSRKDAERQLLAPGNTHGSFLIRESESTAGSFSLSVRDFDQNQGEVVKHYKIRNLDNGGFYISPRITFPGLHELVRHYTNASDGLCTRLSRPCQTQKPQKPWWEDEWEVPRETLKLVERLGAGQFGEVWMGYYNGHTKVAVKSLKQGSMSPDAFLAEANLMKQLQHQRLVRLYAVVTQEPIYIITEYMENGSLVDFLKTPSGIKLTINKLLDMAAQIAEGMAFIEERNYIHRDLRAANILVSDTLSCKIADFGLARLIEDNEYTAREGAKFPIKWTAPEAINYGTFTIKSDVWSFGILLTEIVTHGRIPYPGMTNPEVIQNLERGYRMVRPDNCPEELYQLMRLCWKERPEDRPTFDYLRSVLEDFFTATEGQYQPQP
T4 sequence (P07947 whole entry): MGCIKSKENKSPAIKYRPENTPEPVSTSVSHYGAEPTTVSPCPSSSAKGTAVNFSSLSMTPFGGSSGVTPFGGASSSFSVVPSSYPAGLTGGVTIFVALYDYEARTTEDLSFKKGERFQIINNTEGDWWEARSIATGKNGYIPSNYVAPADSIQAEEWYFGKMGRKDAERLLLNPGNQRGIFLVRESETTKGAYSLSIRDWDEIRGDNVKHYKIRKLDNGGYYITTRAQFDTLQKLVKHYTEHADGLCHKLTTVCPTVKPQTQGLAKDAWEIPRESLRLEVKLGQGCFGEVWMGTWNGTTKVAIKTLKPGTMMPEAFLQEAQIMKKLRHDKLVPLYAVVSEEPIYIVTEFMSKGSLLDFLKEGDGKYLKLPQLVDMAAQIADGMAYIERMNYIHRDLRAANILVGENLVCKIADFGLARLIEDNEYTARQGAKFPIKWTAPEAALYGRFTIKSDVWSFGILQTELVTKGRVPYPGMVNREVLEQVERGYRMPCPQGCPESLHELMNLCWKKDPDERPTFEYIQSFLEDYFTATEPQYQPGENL

| SMILES | phosphorylation of Lck (LCK) | phosphorylation of Lyn (Lyn) | STAT5 phosphorylation (STAT5) | phosphorylation of Src (Src) | PARP cleavage (apoptotic cell death) [1] | cytotoxicity (in words) ([2]; Gleevec resistant K562 cells, FIG. 1) | toxicity to the leukemic cells tested [3] | anti-leukemic activity [3] | CrkL phosphorylation (Crkl) | activity of the mice compared to DMSO treated mice [4] | liver tumor mass compared to DMSO treated mice [4] | median survival ([4]; DMSO 39 days, Log-rank P=0.0036, Gehan-Breslow-Wilcoxon P=0.0045) [days] | survival (Kaplan-Meier) ([4]; DMSO treated 40 days) [days] | phosphorylation of Yes (Yes) | pIC50 [2] | phosphorylation of Bcr-Abl Kinase (T315I mutant Bcr-Abl) | cytotoxicity to Gleevec resistant CML (GRCML) ([2]; Gleevec resistant CML, cell line not named) | affinity for the ATP binding site on Bcr-Abl relative to imatinib (Bcr-Abl) |
| --- | --- | --- | --- | --- | --- | --- | --- | --- | --- | --- | --- | --- | --- | --- | --- | --- | --- | --- |
| CCc1cc2cc3c(cc2nc1SCC(=O)Nc1ccc(OC)cc1)OCCO3 [ALD-11, 2-(8-Ethyl-2,3-dihydro-[1,4]dioxino[2,3-g]quinolin-7-ylsulfanyl)-N-(4-methoxy-phenyl)-acetamide] | not | not | did not affect | did not affect | did not reveal PARP cleavage | not cytotoxic | non-toxic | inactive | did not affect | – | – | – | – | – | – | – | – | – |
| CCc1cc2cc3c(cc2nc1SCC(=O)Nc1ccccc1C)OCCO3 [ALD-10, 2-(8-Ethyl-2,3-dihydro-[1,4]dioxino[2,3-g]quinolin-7-ylsulfanyl)-N-o-tolyl-acetamide] | significantly inhibited | significantly inhibited | inhibited | inhibited | induction of PARP cleavage | – | toxic | anti-leukemic activity | inhibited | considerably more active | reduced liver tumor mass | 42 | 48 | significantly inhibited | 7.13 | block phosphorylation | – | – |
| CCc1cc2cc3c(cc2nc1SCC(=O)Nc1ccccc1OC)OCCO3 [ALD-12, 2-(8-ethyl-2,3-dihydro-[1,4]dioxino[2,3-g]quinolin-7-ylsulfanyl)-N-(2-methoxy-phenyl)-acetamide] | significantly inhibited | significantly inhibited | inhibited | inhibited | induction of PARP cleavage | – | toxic | anti-leukemic activity | inhibited | – | – | – | – | significantly inhibited | 7.16 | block phosphorylation | – | – |
| COC(=O)c1ccc(NC(=O)CSc2nc3cc4c(cc3cc2C)OCCO4)cc1 [ALD-1, 4-[2-(8-Methyl-2,3-dihydro-[1,4]dioxino[2,3-g]quinolin-7-ylsulfanyl)-acetylamino]-benzoic acid methyl ester] | – | – | – | – | – | – | non-toxic | – | – | – | – | – | – | – | – | – | – | – |
| CCc1cc2cc3c(cc2nc1SCC(=O)Nc1ccc(OC)cc1OC)OCCO3 [ALD-4, N-(2,4-Dimethoxy-phenyl)-2-(8-ethyl-2,3-dihydro-[1,4]dioxino[2,3-g]quinolin-7-ylsulfanyl)-acetamide] | – | – | – | inhibited | – | – | toxic | anti-leukemic activity | – | – | – | – | – | – | – | block phosphorylation | highly cytotoxic | – |
| Cc1cn(-c2cc(NC(=O)c3ccc(C)c(Nc4nccc(-c5cccnc5)n4)c3)cc(C(F)(F)F)c2)cn1 [Nilotinib] | – | – | – | – | – | – | – | – | – | – | – | – | – | – | – | – | – | up to 50 times |
